IC50 data for 2 compounds are collected here from publication doi:10.1101/713214v1 (biorxiv, 2019).

Holding throughout (format): biochemical
One assay deals with MtbClpP1P2 (Mycobacterium tuberculosis, UniProt P9WPC5). The assay is described as follows: fluorogenic peptidase assay, Z-Gly-Gly-Leu-AMC.
For another assay, the target named is EcClpP (Escherichia coli, UniProt P0A6G7). The assay is described as follows: fluorogenic peptidase assay, Suc-LY-AMC.
The target in the next assay is PaClpP1 (Pseudomonas aeruginosa, UniProt Q9I2U1). Kind of assay: fluorogenic peptidase assay, Suc-LY-AMC.
PaClpP1, sequence (Q9I2U1 whole entry): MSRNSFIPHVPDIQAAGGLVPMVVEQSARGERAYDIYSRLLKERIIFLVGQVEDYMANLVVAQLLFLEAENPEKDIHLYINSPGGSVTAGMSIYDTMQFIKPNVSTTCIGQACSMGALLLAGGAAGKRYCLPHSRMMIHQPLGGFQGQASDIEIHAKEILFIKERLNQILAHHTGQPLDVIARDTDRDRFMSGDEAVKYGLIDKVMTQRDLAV
The next assay addresses T1, SaClpP (Staphylococcus aureus, UniProt Q2G036).
T1 sequence (Q2G036 1-195): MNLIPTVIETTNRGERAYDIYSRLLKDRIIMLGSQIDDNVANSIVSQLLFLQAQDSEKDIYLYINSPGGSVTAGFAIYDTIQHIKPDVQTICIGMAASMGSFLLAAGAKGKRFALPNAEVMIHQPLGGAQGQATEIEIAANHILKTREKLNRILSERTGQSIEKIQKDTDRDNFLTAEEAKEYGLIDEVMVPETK
Kind of assay: fluorogenic peptidase assay, Suc-LY-AMC.

For the next assay, the target named is hClpP (Homo sapiens, UniProt Q16740). Kind of assay: fluorogenic peptidase assay, Suc-LY-AMC.
hClpP, sequence (Q16740 58-277): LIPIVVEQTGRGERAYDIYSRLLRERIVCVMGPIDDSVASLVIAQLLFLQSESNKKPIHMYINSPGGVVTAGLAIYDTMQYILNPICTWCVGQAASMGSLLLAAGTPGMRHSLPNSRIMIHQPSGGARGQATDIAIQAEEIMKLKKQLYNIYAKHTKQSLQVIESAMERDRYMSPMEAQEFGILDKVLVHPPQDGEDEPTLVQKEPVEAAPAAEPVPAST

A value given as a limit tells only on which side of the number the result lay.

One may read the IC50 as the concentration that gives 50% inhibition. A lower IC50 goes with higher potency.

MtbClpP1P2, sequence (P9WPC5 whole entry, looked up): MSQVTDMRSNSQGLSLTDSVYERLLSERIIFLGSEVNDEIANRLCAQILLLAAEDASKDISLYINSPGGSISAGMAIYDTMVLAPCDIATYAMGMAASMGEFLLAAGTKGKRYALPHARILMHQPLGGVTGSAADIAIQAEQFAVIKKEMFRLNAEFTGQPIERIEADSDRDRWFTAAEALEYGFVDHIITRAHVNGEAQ
EcClpP, sequence (P0A6G7 15-207): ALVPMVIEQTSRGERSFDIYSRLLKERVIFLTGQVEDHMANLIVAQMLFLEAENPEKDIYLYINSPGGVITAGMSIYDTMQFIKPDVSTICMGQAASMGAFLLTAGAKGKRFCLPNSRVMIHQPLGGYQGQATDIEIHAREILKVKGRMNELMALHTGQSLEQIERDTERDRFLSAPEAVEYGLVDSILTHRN

For `Cc1cc2c(F)c(Oc3ncnn4cc(OC[C@@H](C)O)c(C)c34)ccc2[nH]1` [brivanib], half-maximal inhibition against MtbClpP1P2 (IC50) required 12.5 µM.

As for `COc1cc2c(Oc3ccc4[nH]c(C)cc4c3F)ncnc2cc1OCCCN1CCCC1` [cediranib], the IC50 is 3.4 ± 0.7 µM against MtbClpP1P2; more than 100 µM at EcClpP; more than 100 µM against PaClpP1; more than 100 µM against SaClpP; 36.6 ± 0.5 µM on hClpP.
